Experimental data taken from patent US20170049725A9, “COMBINATION CANCER TREATMENT” (WISCONSIN ALUMNI RESEARCH FOUNDATION, priority 2014, published 2017).
Entries after “also recorded” stand apart in the source; their conditions may differ.

Tests used:
[1] = system: untransformed MCF-10A-Vector cells; assay: MTS cell viability assay; type: cell-based, Human; conditions: metformin 5 mM or agonist 1.5 μg/ml alone
Experimental: (§5) Untransformed MCF-10A-Vector and transformed MCF-10A-RasV12 cells were untreated or preincubated with metformin (MF, 5 mM) for 48 hours and then treated with TRAIL (1.5 μg/ml), mapatumumab (1.5 μg/ml), or lexatumumab (1.5 μg/ml) for an additional 24 hours. Cell viability was determined by MTS assay and expressed as fold-change relative to untreated controls. **P<0.01 or ***P<0.001 versus controls.
(§6) Cell viability assay: An MTS cell viability assay was performed as known in the art. Briefly, cells were plated overnight in 96-well plates (3×10^3 cells/well). Cells were then untreated or preincubated with metformin (5 mM) for 48 hours before adding lexatumumab (1.5 μg/ml), mapatumumab (1.5 μg/ml) or TRAIL (1.5 μg/ml). Cell viability was assessed 24 hours later. Cell viability was determined in triplicate wells and expressed as the fold-change relative to untreated controls.

TRAIL-R1 on GILM2 cells = assay: Cell surface expression of TRAIL receptors by flow cytometry; type: cell-based, Human; conditions: 5 mM metformin for 72 hours
Experimental: GILM2 cells were grown in control media or media containing 5 mM metformin for 72 hours, incubated with control IgG, TRAIL-R1 or TRAIL-R2 mAb, and analyzed by flow cytometry.
To determine whether metformin enhances the cell surface expression of TRAIL receptors in cancer cells, GILM2 cells were treated with metformin for 72 hours, and the cell surface expression of TRAIL-R2 and TRAIL-R1 was determined by flow cytometry.

[2] = system: GILM2-mCherry mammary tumors; assay: Orthotopic model of metastatic triple-negative breast cancer; type: in vivo, female NSG mice; conditions: NSG mice; TRAIL 10 mg/kg i.p. daily for two weeks; metformin 250 mg/mL in drinking water; alone or combined
Experimental: GILM2-mCherry cells (1×10^6) were injected intraductally into both 4th mammary glands of female NOD scid IL2 receptor γ chain knockout (NSG) mice. Mice were randomized into 4 groups (10 mice per group): vehicle, TRAIL alone (10 mg/kg i.p. daily for two weeks), metformin alone (250 mg/mL in drinking water), or the combination of these doses of metformin and TRAIL. Mice were treated with metformin beginning three weeks after tumor inoculation and throughout the study; TRAIL treatment was initiated 3.5 weeks after tumor cell inoculation.
To determine whether metformin augments the antitumor effects of TRAIL in an orthotopic model of metastatic triple-negative breast cancer, female NSG mice bearing established GILM2-mCherry mammary tumors were treated with vehicle, metformin alone, TRAIL alone or the combination of metformin and TRAIL.

[3] = system: XIAP in GILM2 breast cancer cells; assay: Immunoblot of XIAP expression; type: cell-based, Human; conditions: 5 mM metformin for 72 hours
Experimental: (§1) Immunoblot of XIAP expression in MDA-MB-231, GILM2 and MDA-MB-468 breast cancer cell lines grown in control media (V) or media containing 5 mM metformin (MF) for 72 hours.
(§2) Without being held to theory, it was postulated that metformin might sensitize cancer cells to TRAIL by downregulating XIAP.

[4] = system: caspase-3 and PARP in GILM2 carcinoma cells; assay: Immunoblotting of caspase activation (procaspase-3, PARP); type: cell-based, Human; conditions: metformin 5 mM 48 hours, then TRAIL 1.5 μg/ml 16 hours
[5] = system: caspase-3 and PARP in MCF-10A-RasV12 cells; assay: as above; type: cell-based, Human; conditions: metformin 5 mM 48 hours, then TRAIL 1.5 μg/ml 16 hours
[6] = system: GILM2 breast carcinoma cells; assay: MTS cell viability assay
Experimental: (§7) Human GILM2, HT29 and DU145 carcinoma cells were untreated or preincubated with metformin (MF, 5 mM) for 48 hours and then treated with TRAIL (1.5 μg/ml), mapatumumab (1.5 μg/ml), or lexatumumab (1.5 μg/ml) for an additional 24 hours. Cell viability was determined by MTS assay and expressed as fold-change relative to untreated controls. *P<0.05, **P<0.01 or ***P<0.001 versus controls.
as §6

[7] = system: XIAP in MDA-MB-468 breast cancer cells; assay: Immunoblot of XIAP expression; type: cell-based; conditions: 5 mM metformin for 72 hours
Experimental: as §1, §2

[8] = system: XIAP in MDA-MB-231 breast cancer cells; assay: Immunoblot of XIAP expression; type: cell-based; conditions: 5 mM metformin for 72 hours
Experimental: as §1, §2

HT29 cells = assay: Crystal violet cell survival assay; type: cell-based, Human
Description: (§3) Top panel: representative images.

DU145 cells = assay: Crystal violet cell survival assay; type: cell-based, Human
Description: as §3

[9] = system: DU145 prostate carcinoma cells; assay: MTS cell viability assay
Experimental: as §7, §6

HT29 colon cancer cells = assay: MTS cell viability assay
Experimental: as §7, §6

[10] = system: untransformed MCF-10A-Vector cells; assay: Crystal violet cell survival assay; type: cell-based, Human; conditions: metformin 5 mM
Experimental: as §3
(§4) Crystal violet cell survival assay: Cells were seeded overnight on 6-well plates (3×10^5 cells/well). […] Surviving cells were fixed and stained with crystal violet as described in the art. The percentage of cell confluence was determined using NIH Image J software.

[11] = system: transformed MCF-10A-RasV12 cells; assay: Crystal violet cell survival assay; type: cell-based, Human; conditions: metformin 5 mM 48 hours preincubation
Experimental: as §3, §4

GILM2 cells = assay: Crystal violet cell survival assay; conditions: for cytotoxicity of agent alone (cell confluence of surviving cells): metformin 5 mM or agonist 1.5 μg/ml alone
Experimental: as §3, §4

[12] = system: caspase-3 and PARP in MCF-10A-Vector cells; assay: Immunoblotting of caspase activation (procaspase-3, PARP); type: cell-based, Human; conditions: metformin 5 mM 48 hours, then TRAIL 1.5 μg/ml 16 hours
[13] = system: caspase-3 and PARP in DU145 carcinoma cells; assay: as above; type: cell-based, Human; conditions: metformin 5 mM 48 hours, then TRAIL 1.5 μg/ml 16 hours
[14] = system: caspase-3 and PARP in HT29 carcinoma cells; assay: as above; type: cell-based, Human; conditions: metformin 5 mM 48 hours, then TRAIL 1.5 μg/ml 16 hours
[15] = system: TRAIL-R1 mRNA in GILM2 cells; assay: TRAIL receptor mRNA levels by real-time PCR; type: cell-based, Human; conditions: 5 mM metformin for 72 hours, normalized to control media
Experimental: GILM2 breast cancer cells were cultured in control media or media containing 5 mM metformin (MF) for 72 hours, and total RNA was then isolated. TRAIL-R2 and TRAIL-R1 mRNA levels were measured by real-time PCR and normalized to expression in GILM2 cells grown in control media.
To determine whether metformin sensitizes cancer cells to TRAIL by increasing the expression of its proapoptotic receptors (TRAIL-R1 and TRAIL-R2), GILM2 cells were treated with metformin for 72 hours, and then TRAIL receptor mRNA levels were measured by real-time PCR.

[16] = system: transformed MCF-10A-RasV12 cells; assay: MTS cell viability assay; type: cell-based, Human
Experimental: as §5, §6

[17] = system: metastatic breast cancer cells; conditions: cited from earlier work
[18] = metformin 5 mM 48 hours preincubation, then TRAIL 1.5 μg/ml 24 hours
[19] = metformin 5 mM 48 hours preincubation, then lexatumumab 1.5 μg/ml 24 hours
[20] = metformin 5 mM 48 hours preincubation, then mapatumumab 1.5 μg/ml 24 hours
[21] = metformin 5 mM or agonist 1.5 μg/ml alone

Molecule: CN(C)C(=N)NC(=N)N [metformin, N,N-dimethylimidodicarbonimidic diamide]
- effect on cell viability, agent individually [1]: largely resistant
- cell surface expression of TRAIL-R1 (TRAIL-R1 on GILM2 cells): did not significantly affect
- lung metastases [2]: no significant effect
- mammary tumor growth [2]: no significant effect
- XIAP protein levels [3]: reduction
- TRAIL-induced proteolysis of the caspase substrate PARP [4]: increased
- TRAIL-induced proteolytic activation of procaspase-3 [4]: augmented
- TRAIL-induced proteolytic cleavage of PARP [5]: enhanced
- TRAIL-induced proteolytic cleavage of procaspase-3 [5]: enhanced
- sensitivity to TRAIL (cell viability) [6, 18]: enhanced the sensitivity
- sensitivity to lexatumumab (cell viability) [6, 19]: enhanced the sensitivity
- cytotoxicity of mapatumumab (cell viability) [6, 20]: did not augment the cytotoxicity
- effect on cell viability, agent individually [6, 21]: modest or no significant effect
- XIAP protein levels [7]: reduction
- XIAP protein levels [8]: reduction
- cytotoxicity of TRAIL (cell confluence of surviving cells) (HT29 cells; [18]): increased the cytoxicity
- cytotoxicity of lexatumumab (cell confluence of surviving cells) (HT29 cells; [19]): increased the cytoxicity
- cytotoxicity of mapatumumab (cell confluence of surviving cells) (HT29 cells; [20]): increased the cytoxicity; also recorded: more modest
- cytotoxicity of agent alone (cell confluence of surviving cells) (HT29 cells; [21]): more robust cytotoxicity
- cytotoxicity of TRAIL (cell confluence of surviving cells) (DU145 cells; metformin 5 mM 48 hours preincubation, then TRAIL 1.5 μg/ml 48 hours): increased the cytoxicity
- cytotoxicity of lexatumumab (cell confluence of surviving cells) (DU145 cells; metformin 5 mM 48 hours preincubation, then lexatumumab 1.5 μg/ml 48 hours): increased the cytoxicity
- cytotoxicity of mapatumumab (cell confluence of surviving cells) (DU145 cells; metformin 5 mM 48 hours preincubation, then mapatumumab 1.5 μg/ml 48 hours): increased the cytoxicity
- cytotoxicity of agent alone (cell confluence of surviving cells) (DU145 cells; [21]): modest cytoxicity
- sensitivity to TRAIL (cell viability) [9, 18]: enhanced the sensitivity
- sensitivity to lexatumumab (cell viability) [9, 19]: enhanced the sensitivity
- cytotoxicity of mapatumumab (cell viability) [9, 20]: did not augment the cytotoxicity
- effect on cell viability, agent individually [9, 21]: modest or no significant effect
- sensitivity to TRAIL (cell viability) (HT29 colon cancer cells; [18]): enhanced the sensitivity
- sensitivity to lexatumumab (cell viability) (HT29 colon cancer cells; [19]): enhanced the sensitivity
- cytotoxicity of mapatumumab (cell viability) (HT29 colon cancer cells; [20]): did not augment the cytotoxicity
- effect on cell viability, agent individually (HT29 colon cancer cells; [21]): modest or no significant effect
- effect of metformin alone on cell survival [10]: little effect
- sensitization to TRAIL (cell survival) ([11]; then TRAIL 1.5 μg/ml 24 hours): dramatically sensitized
- sensitization to lexatumumab (cell survival) ([11]; then lexatumumab 1.5 μg/ml 24 hours): dramatically sensitized
- effect on mapatumumab-induced cell death ([11]; then mapatumumab 1.5 μg/ml 24 hours): only a modest effect
- cytotoxicity of TRAIL (cell confluence of surviving cells) (GILM2 cells; [18]): increased the cytoxicity
- cytotoxicity of lexatumumab (cell confluence of surviving cells) (GILM2 cells; [19]): increased the cytoxicity
- cytotoxicity of mapatumumab (cell confluence of surviving cells) (GILM2 cells; [20]): increased the cytoxicity; also recorded: more modest
- cytotoxicity of agent alone (cell confluence of surviving cells) (GILM2 cells): modest cytoxicity
- TRAIL-induced proteolytic cleavage of PARP [12]: little effect
- TRAIL-induced proteolytic cleavage of procaspase-3 [12]: little effect
- TRAIL-induced proteolysis of the caspase substrate PARP [13]: increased
- TRAIL-induced proteolytic activation of procaspase-3 [13]: augmented
- TRAIL-induced proteolysis of the caspase substrate PARP [14]: increased
- TRAIL-induced proteolytic activation of procaspase-3 [14]: augmented
- TRAIL-R1 mRNA levels [15]: modestly reduced
- sensitivity to TRAIL (cell viability) [16, 18]: enhanced the sensitivity
- sensitivity to lexatumumab (cell viability) [16, 19]: enhanced the sensitivity
- sensitivity to mapatumumab (cell viability) [16, 20]: not
- effect on cell viability, agent individually [16, 21]: only modest effects

Molecule: TRAIL: Soluble recombinant TRAIL corresponding to amino acids 95-281 of the protein, expressed in bacteria, His-tagged
- lung metastases [2]: inhibited
- mammary tumor growth [2]: inhibited

Molecule: lexatumumab: fully human IgG1 agonistic monoclonal antibody that binds TRAIL-R2/DR5
- cytotoxicity of agent alone (cell confluence of surviving cells) (GILM2 cells): modest cell death
- sensitivity to apoptosis induction, compared with mapatumumab [17]: more sensitive
